Results: patent US5006343A, “Pulmonary administration of pharmaceutically active substances” (priority 1988, dated 1991)

Tests used:
[1] = given systemically; cited from earlier work
[2] = In vivo anesthetized rat model, radiolabelled Vitamin E in serum, 24 hour timecourse
Method: (§1) The in vivo assay employed in examples 2 and 3 was performed by the following general procedure. The compositions were administered to the lungs of anesthetized adult Sprague-Dawley rats by endotracheal cannula. At various times after administration of the compositions, the animals were sacrificed by overdosing with anesthetics. The lungs and serum were obtained from each rat for analysis. The lung tissue was minced and extracted with 2:1 chloroform:methanol. The serum was extracted with 2:1 chloroform:methanol. The serum was sampled to get an indication of the amount of pharmaceutically active substance being transported into general circulation.
(§2) Liposomes were prepared as described in section A with the addition of ^3 H-Vitamin E in the lipid mixture before evaporation. The following weight ratios of lipid and Vitamin E were used to prepare the liposomes:
(§3) DPPC:PC:PG:Cholesterol:Vitamin E [drawing 1] The chloroform was evaporated from the lipid/Vitamin E mixture by rotary evaporation. The dried lipid/Vitamin E mixture was rehydrated in MEM-Krebs to a concentration of 87 μg Vitamin E/ml. Alveolar surfactant protein SP-A was added to the liposome mixture to a concentration of 100 μg/ml.
(§4) The liposomes containing Vitamin E prepared as in Example I above were tested in vivo by administration to rats according to the procedure outlined above in section C. […]

[3] = In vivo anesthetized rat model, radiolabelled Vitamin E in lung, 24 hour timecourse
Method: as §1, §2, §3, §4

[4] = system: type II cells; test: In vitro uptake of Vitamin E liposomes by freshly isolated type II cells; type: cell-based, male Sprague-Dawley rats; settings: result in words
Method: (§5) The in vitro assay employed in examples 1 and 4 was performed by the following general procedure. Freshly isolated type II cells were prepared by the method of Dobbs, et al., Am. Rev. Respir. Sid. (1986) 134:141-145. Briefly, lungs of specific-pathogen-free male Sprague-Dawley rats weighing 160-180 g (Bantin-Kingman, Fremont, CA) were digested with elastase (Cooper Biomedical, Malverne, PA). The minced digest was filtered through a series of nylon meshes and cells were collected by centrifugation. The cells were then plated on IgG-coated plates and the non-type II cells, which were primarily macrophages and lymophocytes, adhered to the plate over a period of one hour at 37° C. in a 10% CO2 /air incubator. The non-adherent cells were removed by gentle panning and were centrifuged at 130×g for 8 minutes. This cell pellet contained 85±1% type II cells. The viability of the cells as determined by erythrosin B exclusion averaged 97±1%.
(§6) 2.5×10^6 freshly isolated type II cells were suspended in 1 ml of MEM-Krebs. The concentration of calcium was […]. […] Zero time values were determined by centrifugation and washing of the cells immediately after addition of liposomes. […] The final cell pellet was resuspended in 0.5 ml of MEM-Krebs; 0.3 ml was analyzed for radioactivity in a Beckman LS-75000 scintillation counter. […]

[5] = In vivo anesthetized rat model, lung incorporation of radiolabelled Vitamin E, 60 minute timecourse; design: species or system Sprague-Dawley rats; settings: result in words
Method: The serum was extracted with 2:1 chloroform:methanol.
The animals were sacrificed at 0 and 60 minutes and the lungs were tested for incorporation of radiolabelled Vitamin E as described above, with the following results: […]

[6] = system: type II cells; test: In vitro uptake of 6-carboxy-fluorscein liposomes by freshly isolated type II cells; type: cell-based, male Sprague-Dawley rats; settings: result in words
Method: as §5, §6

[7] = system: type II cells; settings: result in words; cited from earlier work
[8] = ASP activity (in vivo assay of Robertson, or in vitro surface tension assay); settings: in combination as well as independently; result in words
Method: In this assay, the sample to be assessed is administered through an endotracheal tube to fetal rabbits or lambs delivered prematurely by Caesarian section. (These "preemies" lack their own alveolar surfactant, and are supported on a ventilator.) Measurements of lung Compliance, blood gases and ventilator pressure provide indices of activity.
Preliminary assessment of activity may also be made by an in vitro assay, for example that of Kihg, R. J., et al, Am J Physiol (1972) 223:715-726, or that illustrated below of Hawgood, et al, which utilizes a straightforward measurement of surface tension at an air-water interface when the protein is mixed with a phospholipid vesicle preparation. […] The ASP activity can be used to enhance pulmonary administration of pharmaceutically active substances.

[9] = 24 hour timecourse, result in words

N=C(N)c1ccc(OCCCCCOc2ccc(C(=N)N)cc2)cc1 [Pentamidine isethionate, pentamidine isethionate]
toxicity [1]: quite toxic if given systemically

Vitamin E [reference compound]
serum radiolabelled Vitamin E, with vs. without SP-A ([2]; rat, in vivo): The same non-specific effect is also seen in the serum
amount of radiolabelled Vitamin E in the lung, with vs. without SP-A ([3]; rat, in vivo): comparable in experimental and control animals

alveolar surfactant protein SP-A: relatively high molecular weight (of the order of 32 kD) apoprotein associated with the lung surfactant complex; sequence of FIG. 1
effect on serum levels of radiolabelled vitamin E [2, 9]: enhances serum levels of radiolabelled vitamin E
effect on uptake of liposomes containing Vitamin E [4]: stimulates the uptake
effect on transport of the liposomes containing Vitamin E to lung tissue [5]: stimulates the transport of the liposomes containing Vitamin E to lung tissue in a rapid fashion
effect on uptake of liposomes containing 6-carboxy-fluorscein [6]: stimulates the uptake
cell specificity of effects [7]: seem specific to type II cells and macrophages
effect on transport to the lung [3, 9]: enhances transport to the lung
ASP activity [8]: show ASP activity in combination as well as independently

B1: SP-B: the larger of the two hydrophobic proteins, about 18 kD on gels under non-reducing conditions; sequence of FIG. 2 (protein, UniProt P07988 201-279, looked up)
Pulmonary …: FPIPLPYCWLCRALIKRIQAMIPKGALAVAVAQVCRVVPLVAGGICQCLAERYSVILLDTLLGRMLPQLVCRLVLRCSM
modifications: Pulmonary surfactant-associated protein B
ASP activity [8]: show ASP activity in combination as well as independently
